Patent US20250215039A1, “NUCLEOSIDES FOR TREATING CANCER” (PRIMEFOUR THERAPEUTICS, INC., priority 2022, published 2025)
pIC50: −log10 of the molar value. Where two headings read alike, the source gives them in different places.

Tested on: cancer cell lines
Test: Cancer cell proliferation activity (CellTiterGlo, 72 h)
Assay type: cell-based
Settings: 72 h, 72 h, read-out: IC50 cell proliferation
Outline: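 Readout is CellTiterGlo luminescence after 72 h compound exposure (0.1% DMSO final), started one day post-seeding, at 37 °C.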

## C[C@]1(CO)O[C@@H](n2ccc(N)nc2=O)[C@@H](O)[C@@H]1O [Cpd. No. 193, 4-amino-1-((2R,3S,4S,5R)-3,4-dihydroxy-5-(hydroxymethyl)-5-methyltetrahydrofuran-2-yl)pyrimidin-2(1H)-one]
5637 (bladder)
  pIC50: < 4.30
CLS439 (bladder)
  pIC50: < 4.30
HS729 (muscle)
  pIC50: 5.23
J82 (bladder)
  pIC50: 5.26
JAR (placenta)
  pIC50: < 4.30
MT3 (breast)
  pIC50: 6.24
PANCI (pancreas)
  pIC50: 5.44
PC3 (prostate)
  pIC50: 5.69
RD (muscle)
  pIC50: < 4.30
T24 (bladder)
  pIC50: 5.63
Homo sapiens, 22Rv1, 72 h, 22RV1 (prostate)
  pIC50: 5.24
Homo sapiens, 786-0, 72 h, 786O (kidney)
  pIC50: 5.02
Homo sapiens, A204, 72 h, A204 (muscle)
  pIC50: 7.22
Homo sapiens, A549, 72 h, A549 (lung)
  pIC50: 5.63
Homo sapiens, A673, 72 h, A673 (bone)
  pIC50: 5.49
Homo sapiens, A2780, 72 h, A2780 (ovary)
  pIC50: 5.46
Homo sapiens, A-375, 72 h, A375 (skin)
  pIC50: 5.44
Homo sapiens, A-431, 72 h, A431 (skin)
  pIC50: 5.60
Homo sapiens, ACHN, ACHN (kidney)
  pIC50: 5.55
Homo sapiens, ASPC1, 72 h, ASPC1 (pancreas)
  pIC50: < 4.30
Homo sapiens, BT-20, 72 h, BT20 (breast)
  pIC50: 5.51
Homo sapiens, BXPC-3, 72 h, BXPC3 (pancreas)
  pIC50: 5.37
Homo sapiens, C-33-A, C33A (endometrial)
  pIC50: 5.84
Homo sapiens, CAKI-1, 72 h, CAKI1 (kidney)
  pIC50: 5.80
Homo sapiens, COLO 205, 72 h, COLO205 (colon)
  pIC50: 5.80
Homo sapiens, COLO-678, 72 h, COLO678 (colon)
  pIC50: < 4.30
Homo sapiens, Ca-Ski, CASKI (endometrial)
  pIC50: 5.51
Homo sapiens, Caco-2, 72 h, CACO2 (colon)
  pIC50: < 4.30
Homo sapiens, Calu-6, 72 h, CALU6 (lung)
  pIC50: 5.42
Homo sapiens, DLD-1, 72 h, DLD1 (colon)
  pIC50: 5.40
Homo sapiens, DU-145, 72 h, DU145 (prostate)
  pIC50: 5.85
Homo sapiens, EFO-21, 72 h, EFO21 (ovary)
  pIC50: 5.34
Homo sapiens, EJ-28, 72 h, EJ28 (bladder)
  pIC50: 5.35
Homo sapiens, Granta-519, 72 h, GRANTA-519 (hematological)
  pIC50: 6.05
Homo sapiens, HCT-15, 72 h, HCT15 (colon)
  pIC50: 5.67
Homo sapiens, HCT-116, 72 h, HCT116 (colon)
  pIC50: 5.55
Homo sapiens, HEK293, 72 h, HEK293 (kidney)
  pIC50: < 4.30
Homo sapiens, HL-60, 72 h, HL-60 (hematological)
  pIC50: 5.79
Homo sapiens, HT-29, 72 h, HT29 (colon)
  pIC50: < 4.30
Homo sapiens, HT-1080, 72 h, HT1080 (connective tissue)
  pIC50: 5.56
Homo sapiens, HeLa, HELA (endometrial)
  pIC50: < 4.30
Homo sapiens, HepG2, 72 h, HEPG2 (liver)
  pIC50: 5.45
Homo sapiens, Hs-578T, HS578T (breast)
  pIC50: < 4.30
Homo sapiens, IGROV-1, 72 h, IGROV1 (ovary)
  pIC50: 5.67
Homo sapiens, IMR-90, 72 h, IMR90 (lung)
  pIC50: 5.38
Homo sapiens, JEG-3, 72 h, JEG3 (placenta)
  pIC50: < 4.30
Homo sapiens, JIMT-1, 72 h, JIMT1 (breast)
  pIC50: 5.55
Homo sapiens, K562, 72 h, K-562 (hematological)
  pIC50: < 4.30
Homo sapiens, Kasumi 1, 72 h, KASUMI-1 (hematological)
  pIC50: 6.43
Homo sapiens, L-363, 72 h, L-363 (hematological)
  pIC50: < 4.30
Homo sapiens, LoVo, LOVO (colon)
  pIC50: 5.63
Homo sapiens, MCF7, 72 h, MCF7 (breast)
  pIC50: < 4.30
Homo sapiens, MDA-MB-231, 72 h, MDAMB231 (breast)
  pIC50: 5.84
Homo sapiens, MDA-MB-435, 72 h, MDAMB435 (skin)
  pIC50: 5.32
Homo sapiens, MDA-MB-436, 72 h, MDAMB436 (breast)
  pIC50: < 4.30
Homo sapiens, MDA-MB-468, 72 h, MDAMB468 (breast)
  pIC50: < 4.30
Homo sapiens, MG-63, 72 h, MG63 (bone)
  pIC50: < 4.30
Homo sapiens, MHH-ES-1, 72 h, MHHES1 (bone)
  pIC50: 5.65
Homo sapiens, MIA PaCa-2, 72 h, MIAPACA2 (pancreas)
  pIC50: < 4.30
Homo sapiens, MINO, MINO (hematological)
  pIC50: 6.60
Homo sapiens, MV4-11, 72 h, MV4-11 (hematological)
  pIC50: 5.32
Homo sapiens, NCI-H23, 72 h, NCI-H23 (lung)
  pIC50: 5.10
Homo sapiens, NCI-H82, 72 h, NCIH82 (lung)
  pIC50: 5.47
Homo sapiens, NCI-H292, 72 h, NCIH292 (lung)
  pIC50: 5.24
Homo sapiens, NCI-H460, 72 h, NCIH460 (lung)
  pIC50: 5.55
Homo sapiens, OVCAR-3, 72 h, OVCAR3 (ovary)
  pIC50: 5.56
Homo sapiens, OVCAR-4, 72 h, OVCAR4 (ovary)
  pIC50: < 4.30
Homo sapiens, PLC-PRF-5, 72 h, PLCPRF5 (liver)
  pIC50: < 4.30
Homo sapiens, Panc1005, 72 h, PANC1005 (pancreas)
  pIC50: < 4.30
Homo sapiens, Ramos, RAMOS (hematological)
  pIC50: 5.52
Homo sapiens, SAOS-2, 72 h, SAOS2 (bone)
  pIC50: 5.95
Homo sapiens, SF-268, 72 h, SF268 (brain)
  pIC50: 5.56
Homo sapiens, SF-295, 72 h, SF295 (brain)
  pIC50: < 4.30
Homo sapiens, SK-BR-3, 72 h, SKBR3 (breast)
  pIC50: 5.46
Homo sapiens, SK-HEP1, 72 h, SKHEP1 (liver)
  pIC50: 5.54
Homo sapiens, SK-LMS-1, 72 h, SKLMS1 (uterus)
  pIC50: < 4.30
Homo sapiens, SK-MEL-5, 72 h, SKMEL5 (skin; SKMELS [sic] in Table 9E)
  pIC50: < 4.30
Homo sapiens, SK-MEL-28, 72 h, SKMEL28 (skin)
  pIC50: < 4.30
Homo sapiens, SK-N-AS, SKNAS (brain)
  pIC50: 5.22
Homo sapiens, SK-N-SH, SKNSH (brain)
  pIC50: 5.32
Homo sapiens, SK-OV-3, 72 h, SKOV3 (ovary)
  pIC50: < 4.30
Homo sapiens, SNB-75, 72 h, SNB75 (brain)
  pIC50: 5.35
Homo sapiens, SU-DHL10, 72 h, SU-DHL-10 (hematological)
  pIC50: 5.49
Homo sapiens, SU-DHL-6, 72 h, SU-DHL-6 (hematological)
  pIC50: 5.53
Homo sapiens, SW-620, 72 h, SW620 (colon)
  pIC50: < 4.30
Homo sapiens, TE-671, 72 h, TE671 (muscle)
  pIC50: 5.31
Homo sapiens, THP-1, 72 h, THP-1 (hematological)
  pIC50: 5.53
Homo sapiens, U2OS, U20S (bone; U2OS in Table 9E)
  pIC50: < 4.30
Homo sapiens, U-87 MG, U87MG (brain)
  pIC50: 5.97
Homo sapiens, UMUC3, 72 h, UMUC3 (bladder)
  pIC50: 5.38
Homo sapiens, UO-31, 72 h, UO31 (kidney)
  pIC50: 5.41
Homo sapiens, WSU-NHL, WSU-NHL (hematological)
  pIC50: 6.31
NCI-H358M, NCIH358M (lung)
  pIC50: 5.60
PBMC, PBMC (hematological)
  pIC50: < 4.30
RD-ES, RDES (bone)
  pIC50: < 4.30
